Patent publication US7001746B1, “Methods and compositions for the differentiation of human preadipocytes into adipocytes” (Artecel Sciences, Inc., priority 1999, dated 2006)

What was measured:
human preadipocytes [1] = conditions: 1 μM BRL49653
Method: The following procedure was used to determine the amount of lipid that had accumulated in the adipocytes. 120 μl/well of medium was removed from each well of the 96-well plates. Care was taken to prevent drying of the wells. 100 μl/well fixer solution (7% formaldehyde in PBS) was added and the plate was incubated at room temperature for at lease 2 hours. Oil Red O working solution was prepared by adding 4 ml distilled water to 6 ml Oil Red O stock solution (1% Oil Red O in isopropanol). The working solution was incubated for 20 minutes at room temperature and then filtered through Nalgene 0.8 μm filter wear. All of the fixer was removed by aspiration until wells were completely dry.
The cells were then incubated with 40 μl/well Oil Red O working solution at room temperature for 10-15 minutes. Care was taken not to touch the sides of the wells in order to prevent high background due to dye stuck on the wall of the well. The plate was covered during incubation to prevent evaporation. Following this incubation, all of the Oil Red O solution was removed and the cells were washed four times with 200 μl/well distilled water. […]
(§1) Isopropanol (100 μl/well) was then added and the plate was incubated at room temperature for 10 minutes. […] The optical density was measured at 500 nm. […]

human preadipocytes [2] = test: Differentiation of human preadipocytes to adipocytes, Oil Red O staining (Example 2); format: cell-based; conditions: Adipocyte, in differentiation medium, read-out: concentration that allows for half maximal stimulation of differentiation
Method: Preadipocytes from the stroma-vascular fraction were resuspended in preadipocyte medium (DME-Ham's F-10, 1:1 (v/v), 10% FBS, and penicillin-streptomycin-fungizone) and plated at 25,000 cells/well in each of the wells of a 96 well plate (150 μl/well). The cells were then placed in a 37° C. 5% CO2 incubator and allowed to settle overnight. The following day, all of the medium was removed and replaced with 150 μl differentiation medium (Dulbecco's Modified Eagle Medium/Ham's F-10 Nutrient Broth (1:1, vol/vol), 15 mM HEPES buffer, pH 7.4, 33 μM biotin, 17 μM pantothenate, 0.2 mM isobutylmethylxanthine, 100 nM insulin, 1 μM dexamethasone, 1 μM BRL 49653 (diluted into medium from a 100× DMSO stock solution), 10% (vol/vol) fetal bovine serum, 60 U/l streptomycin, 60 U/l penicillin and 25 μg/l Fungizone). The cells were maintained on differentiation medium for 3 days. Additional differentiation medium was added as necessary to maintain the proper volume.
120 μl of the medium was removed, taking care to leave a 30 μl layer over the cell surface to prevent the maturing adipocytes from lifting off of the plate surface due to the surface tension created by removal of all the fluid. […]
as §1

[3] = test system: differentiated adipocytes; test: Lipolysis in differentiated human adipocytes, glycerol release (Example 5); format: cell-based; conditions: increasing concentrations, 4 hours, adipocytes from five patients; FIG. 6
Method: Preadipocytes from 5 individual patients were isolated and differentiated into adipocytes as described herein. A 96-well plate of adipocytes differentiated by the method in Example 1 was prepared. After 21 days from plating, the cells were washed in Krebs-Ringer buffer and treated with increasing concentrations of isoproterenol. The positive and negative controls (0.5 μM isoproterenol in KRB and KRB alone, respectively) were added in duplicate. The plates were then incubated at 37° C. for four hours.
When lipolytic agents stimulate adipocytes, triglycerides are converted to glycerol and fatty acids. Lipolytic rate was measured in this example by measuring the glycerol released in the medium. At the end of the incubation time, conditioned medium (100 μl) from each well was transferred into a new plate. Glycerol standards (1 mM, 0.5 mM, 0.25 mM, 0.1 mM, 0.05 mM, 0.025 mM, 0 mM) were included.
Glycerol assay reagent (100 μl; Sigma glycerol assay kit) was added to each well. The solutions were mixed well and incubated at room temperature for 15 minutes and then the optical density of each well was read at 540 nm.

CN(CCOc1ccc(CC2SC(=O)NC2=O)cc1)c1ccccn1 (stereo not drawn) [BRL49653]
differentiation (human preadipocytes [1]): 100%
EC50 (human preadipocytes [2]): 50 nM

CC(C)NCC(O)c1ccc(O)c(O)c1 (stereo not drawn) [isoproterenol]
stimulation of lipolysis (glycerol release) [3]: dose-dependently stimulate lipolysis
